Test results reported in publication PMC5218480 (PLoS ONE, 2017).

System: MV-4-11 cells
Assay: Gene expression microarray analysis (Affymetrix PrimeView) and GSEA
Format: cell-based, human
Set-up: RFU PODN (11730768_x_at) / Fold change /veh PODN (11730768_x_at) / RFU LINC00158 (11744669_a_at) / Fold change /veh LINC00158 (11744669_a_at) / RFU DUSP10 (11751237_a_at) / Fold change /veh DUSP10 (11751237_a_at) / RFU ID3 (11757404_x_at) / Fold change /veh ID3 (11757404_x_at) / RFU PLEKHG5 (11737974_s_at) / Fold change /veh PLEKHG5 (11737974_s_at) / RFU LRRC4B (11730491_at) / Fold change /veh LRRC4B (11730491_at) / RFU GIMAP4 (11747438_a_at) / Fold change /veh GIMAP4 (11747438_a_at) / RFU KRT8 (11758183_x_at) / Fold change /veh KRT8 (11758183_x_at) / RFU CNN1 (11734310_a_at) / Fold change /veh CNN1 (11734310_a_at) / RFU VPS37D (11726825_at) / Fold change /veh VPS37D (11726825_at) / RFU C10orf10 (11716522_x_at) / Fold change /veh C10orf10 (11716522_x_at) / RFU KIR2DL2 /// KIR2DL4 /// KIR2DL5A /// KIR2DL5B /// KIR2DS1 /// KIR2DS2 /// KIR2DS3 /// KIR2DS4 /// KIR3DL3 /// KIR3DL3 /// KIR3DS1 (11738374_at) / Fold change /veh KIR2DL2 /// KIR2DL4 /// KIR2DL5A /// KIR2DL5B /// KIR2DS1 /// KIR2DS2 /// KIR2DS3 /// KIR2DS4 /// KIR3DL3 /// KIR3DL3 /// KIR3DS1 (11738374_at) / RFU C1QL1 (11718748_at) / Fold change /veh C1QL1 (11718748_at) / RFU TMPRSS4 (11747572_a_at) / Fold change /veh TMPRSS4 (11747572_a_at) / RFU HAMP (11756126_x_at) / Fold change /veh HAMP (11756126_x_at) / RFU RNFT2 (11725882_a_at) / Fold change /veh RNFT2 (11725882_a_at) / RFU NR4A2 (11747474_a_at) / Fold change /veh NR4A2 (11747474_a_at) / RFU ABCC12 (11746883_a_at) / Fold change /veh ABCC12 (11746883_a_at) / RFU TMEM136 (11760407_x_at) / Fold change /veh TMEM136 (11760407_x_at) / RFU CLDN22 /// WWC2 (11732394_at) / Fold change /veh CLDN22 /// WWC2 (11732394_at) / RFU HLA-DPB1 (11760878_x_at) / Fold change /veh HLA-DPB1 (11760878_x_at) / RFU SPINT1 (11716480_a_at) / Fold change /veh SPINT1 (11716480_a_at) / RFU GAP43 (11754022_s_at) / Fold change /veh GAP43 (11754022_s_at) / RFU A4GNT (11735810_at) / Fold change /veh A4GNT (11735810_at) / RFU PRB3 (11715151_x_at) / Fold change /veh PRB3 (11715151_x_at) / RFU TUBB4B (11761932_at) / Fold change /veh TUBB4B (11761932_at) / RFU CAPN14 (11732068_a_at) / Fold change /veh CAPN14 (11732068_a_at) / RFU TMCC2 (11721928_a_at) / Fold change /veh TMCC2 (11721928_a_at) / RFU IRGQ (11745062_a_at) / Fold change /veh IRGQ (11745062_a_at) / RFU FAM174B (11720279_a_at) / Fold change /veh FAM174B (11720279_a_at) / RFU TMPRSS4 (11748680_a_at) / Fold change /veh TMPRSS4 (11748680_a_at) / RFU FAM212B (11763350_a_at) / Fold change /veh FAM212B (11763350_a_at) / RFU PLEKHG5 (11743358_a_at) / Fold change /veh PLEKHG5 (11743358_a_at) / RFU ZSCAN30 (11745921_a_at) / Fold change /veh ZSCAN30 (11745921_a_at) / RFU CMKLR1 (11741424_a_at) / Fold change /veh CMKLR1 (11741424_a_at) / RFU LOC101060620 /// MAPK8IP1 (11723275_at) / Fold change /veh LOC101060620 /// MAPK8IP1 (11723275_at) / RFU SPTSSB (11747773_x_at) / Fold change /veh SPTSSB (11747773_x_at) / RFU PRSS12 (11739890_at) / Fold change /veh PRSS12 (11739890_at) / RFU BIN1 (11741810_x_at) / Fold change /veh BIN1 (11741810_x_at) / RFU WNT11 (11732464_a_at) / Fold change /veh WNT11 (11732464_a_at) / RFU C10orf10 (11716521_a_at) / Fold change /veh C10orf10 (11716521_a_at) / RFU C5orf56 (11738089_at) / Fold change /veh C5orf56 (11738089_at) / RFU CYB561 (11721691_x_at) / Fold change /veh CYB561 (11721691_x_at) / RFU ANKRD19P (11752326_a_at) / Fold change /veh ANKRD19P (11752326_a_at) / RFU OR2T12 /// OR2T33 /// OR2T8 (11738714_s_at) / Fold change /veh OR2T12 /// OR2T33 /// OR2T8 (11738714_s_at) / RFU VCAN (11748164_a_at) / Fold change /veh VCAN (11748164_a_at) / RFU JSRP1 (11732532_at) / Fold change /veh JSRP1 (11732532_at) / RFU KRTAP10-11 (11738290_x_at) / Fold change /veh KRTAP10-11 (11738290_x_at) / RFU MYO3A (11730013_a_at) / Fold change /veh MYO3A (11730013_a_at) / RFU EBF3 (11725865_a_at) / Fold change /veh EBF3 (11725865_a_at) / RFU CAMK2N1 (11719241_x_at) / Fold change /veh CAMK2N1 (11719241_x_at) / RFU C5orf56 (11738088_a_at) / Fold change /veh C5orf56 (11738088_a_at) / RFU OLFML3 (11715873_a_at) / Fold change /veh OLFML3 (11715873_a_at) / RFU LOC100653217 /// NTM (11731650_a_at) / Fold change /veh LOC100653217 /// NTM (11731650_a_at) / RFU MAPK11 (11762145_a_at) / Fold change /veh MAPK11 (11762145_a_at) / RFU FIZ1 (11724087_x_at) / Fold change /veh FIZ1 (11724087_x_at) / RFU OASL (11726364_x_at) / Fold change /veh OASL (11726364_x_at) / RFU SOX15 (11748057_x_at) / Fold change /veh SOX15 (11748057_x_at) / RFU CD79A (11719716_a_at) / Fold change /veh CD79A (11719716_a_at) / RFU HIST1H1D (11736915_at) / Fold change /veh HIST1H1D (11736915_at) / RFU CASKIN2 (11723855_a_at) / Fold change /veh CASKIN2 (11723855_a_at) / RFU LOC730098 (11760151_x_at) / Fold change /veh LOC730098 (11760151_x_at) / RFU OR4N2 (11742367_at) / Fold change /veh OR4N2 (11742367_at) / RFU PRRT2 (11749266_a_at) / Fold change /veh PRRT2 (11749266_a_at) / RFU SNX32 (11753110_a_at) / Fold change /veh SNX32 (11753110_a_at) / RFU CDHR5 (11726645_a_at) / Fold change /veh CDHR5 (11726645_a_at) / RFU RCAN1 (11760418_a_at) / Fold change /veh RCAN1 (11760418_a_at) / RFU FAM167A (11723789_a_at) / Fold change /veh FAM167A (11723789_a_at) / RFU FAM26E (11764081_at) / Fold change /veh FAM26E (11764081_at) / RFU ISYNA1 (11749810_s_at) / Fold change /veh ISYNA1 (11749810_s_at) / RFU ACY1 (11761880_at) / Fold change /veh ACY1 (11761880_at) / RFU 11764098_at / Fold change /veh 11764098_at / RFU SAMD14 (11745864_x_at) / Fold change /veh SAMD14 (11745864_x_at) / RFU NPB (11741838_a_at) / Fold change /veh NPB (11741838_a_at) / RFU TMPRSS6 (11731388_a_at) / Fold change /veh TMPRSS6 (11731388_a_at) / RFU KRTAP10-2 (11738614_at) / Fold change /veh KRTAP10-2 (11738614_at) / RFU ARHGAP8 /// PRR5-ARHGAP8 (11727945_x_at) / Fold change /veh ARHGAP8 /// PRR5-ARHGAP8 (11727945_x_at) / RFU KRTAP5-7 /// NADSYN1 (11734609_at) / Fold change /veh KRTAP5-7 /// NADSYN1 (11734609_at) / RFU RASL12 (11751679_a_at) / Fold change /veh RASL12 (11751679_a_at) / RFU CDKN2B (11736163_a_at) / Fold change /veh CDKN2B (11736163_a_at) / RFU PRF1 (11729649_at) / Fold change /veh PRF1 (11729649_at) / RFU, ZNF638 /// ZNF638-IT1 / Fold change vs veh, ZNF638 /// ZNF638-IT1 / RFU, PANK3 / Fold change vs veh, PANK3 / RFU, SH3YL1 / Fold change vs veh, SH3YL1 / RFU, ZEB2 / Fold change vs veh, ZEB2 / RFU, NRIP1 / Fold change vs veh, NRIP1 / RFU, PTTG1IP / Fold change vs veh, PTTG1IP / RFU, CAPN2 / Fold change vs veh, CAPN2 / RFU, MED14 / Fold change vs veh, MED14 / RFU, SNORA58 / Fold change vs veh, SNORA58 / RFU, C1orf63 / Fold change vs veh, C1orf63 / RFU, LRRFIP1 / Fold change vs veh, LRRFIP1 / RFU, NDUFAF7 / Fold change vs veh, NDUFAF7 / RFU, SLC12A2 / Fold change vs veh, SLC12A2 / RFU, IBTK / Fold change vs veh, IBTK / RFU, ESF1 / Fold change vs veh, ESF1 / Fold change vs veh, TMEM50B / RFU, TAOK1 / Fold change vs veh, TAOK1 / RFU, ACBD3 / Fold change vs veh, ACBD3 / RFU, TMA16 / Fold change vs veh, TMA16 / RFU, RWDD3 / Fold change vs veh, RWDD3 / RFU, BCAT1 / Fold change vs veh, BCAT1 / RFU, EDEM3 / Fold change vs veh, EDEM3 / RFU, TMEM33 / Fold change vs veh, TMEM33 / RFU, WDR75 / Fold change vs veh, WDR75 / RFU, AHCTF1 / Fold change vs veh, AHCTF1 / RFU, TFRC / Fold change vs veh, TFRC / RFU, ZDHHC17 / Fold change vs veh, ZDHHC17 / RFU, NOM1 / Fold change vs veh, NOM1 / RFU, ARL8B / Fold change vs veh, ARL8B / RFU, ZBTB11 / Fold change vs veh, ZBTB11 / RFU, TAMM41 / Fold change vs veh, TAMM41 / RFU, KIAA1704 /// LOC100996395 / Fold change vs veh, KIAA1704 /// LOC100996395 / RFU, ING1 / Fold change vs veh, ING1 / RFU, TRMT61B / Fold change vs veh, TRMT61B / RFU, FUBP3 / Fold change vs veh, FUBP3 / RFU, TP53 / Fold change vs veh, TP53 / RFU, TNKS2 / Fold change vs veh, TNKS2 / RFU, ZFP14 / Fold change vs veh, ZFP14 / RFU, ACTR2 / Fold change vs veh, ACTR2 / RFU, PPP3R1 / Fold change vs veh, PPP3R1 / RFU, PIK3R1 / Fold change vs veh, PIK3R1 / RFU, HNRNPA1 / Fold change vs veh, HNRNPA1 / RFU, RNF170 / Fold change vs veh, RNF170 / RFU, ZNF28 / Fold change vs veh, ZNF28 / RFU, RNGTT / Fold change vs veh, RNGTT / RFU, OGT / Fold change vs veh, OGT / RFU, BRD1 / Fold change vs veh, BRD1 / RFU, MARS / Fold change vs veh, MARS / RFU, ZNF655 / Fold change vs veh, ZNF655 / RFU, FAHD1 / Fold change vs veh, FAHD1 / RFU, BDP1 / Fold change vs veh, BDP1 / RFU, LRRCC1 / Fold change vs veh, LRRCC1 / RFU, ARID1A / Fold change vs veh, ARID1A / RFU, ZNF146 / Fold change vs veh, ZNF146 / RFU, ZNF330 / Fold change vs veh, ZNF330 / RFU, GPN3 / Fold change vs veh, GPN3 / RFU, C9orf123 / Fold change vs veh, C9orf123 / RFU, N4BP2L2 / Fold change vs veh, N4BP2L2 / RFU, ARFIP1 / Fold change vs veh, ARFIP1 / RFU, FAM179B / Fold change vs veh, FAM179B / RFU, BCL10 / Fold change vs veh, BCL10 / RFU, UHRF1BP1L / Fold change vs veh, UHRF1BP1L / RFU, BET1 / Fold change vs veh, BET1 / RFU, CNOT2 / Fold change vs veh, CNOT2 / RFU, ZNF268 / Fold change vs veh, ZNF268 / Fold change vs veh, ZNF507 / RFU, DGCR2 / Fold change vs veh, DGCR2 / RFU, WDSUB1 / Fold change vs veh, WDSUB1 / Fold change vs veh, HSP90B1 /// MIR3652 / RFU, ADSS / Fold change vs veh, ADSS / RFU, GK / Fold change vs veh, GK / RFU, ZNF148 / Fold change vs veh, ZNF148 / RFU, TAF9 / Fold change vs veh, TAF9 / RFU, SLC1A5 / Fold change vs veh, SLC1A5 / RFU, SLMO2 / Fold change vs veh, SLMO2 / RFU, ABCC4 / Fold change vs veh, ABCC4 / RFU, LOC101060439 /// RAP1B / Fold change vs veh, LOC101060439 /// RAP1B / RFU, RFX7 / Fold change vs veh, RFX7 / RFU, GTPBP10 / Fold change vs veh, GTPBP10 / RFU, CNEP1R1 / Fold change vs veh, CNEP1R1 / RFU, BIVM-ERCC5 /// ERCC5 / Fold change vs veh, BIVM-ERCC5 /// ERCC5 / RFU, ILF3 / Fold change vs veh, ILF3 / RFU 11762660_at / Fold change /veh 11762660_at / RFU VCAN (11757783_s_at) / Fold change /veh VCAN (11757783_s_at) / RFU DDX43 (11728927_at) / Fold change /veh DDX43 (11728927_at) / RFU KRT8 (11758188_x_at) / Fold change /veh KRT8 (11758188_x_at) / RFU NKD1 (11759106_at) / Fold change /veh NKD1 (11759106_at) / RFU SRD5A1 (11742802_a_at) / Fold change /veh SRD5A1 (11742802_a_at) / RFU TPSAB1 /// TPSB2 (11721975_s_at) / Fold change /veh TPSAB1 /// TPSB2 (11721975_s_at) / RFU GSTM3 (11746129_a_at) / Fold change /veh GSTM3 (11746129_a_at) / RFU IL23R (11737362_x_at) / Fold change /veh IL23R (11737362_x_at) / RFU TMEM51 (11727254_a_at) / Fold change /veh TMEM51 (11727254_a_at) / RFU PIWIL2 (11732686_x_at) / Fold change /veh PIWIL2 (11732686_x_at) / RFU ORM1 (11744905_x_at) / Fold change /veh ORM1 (11744905_x_at) / RFU CCDC152 (11743942_at) / Fold change /veh CCDC152 (11743942_at) / RFU ECM1 (11717891_a_at) / Fold change /veh ECM1 (11717891_a_at) / RFU IL23R (11748794_a_at) / Fold change /veh IL23R (11748794_a_at) / RFU TNFAIP8L3 (11732012_x_at) / Fold change /veh TNFAIP8L3 (11732012_x_at) / RFU MBOAT4 (11741988_at) / Fold change /veh MBOAT4 (11741988_at) / RFU 11764193_at / Fold change /veh 11764193_at / RFU TMEM53 (11763286_at) / Fold change /veh TMEM53 (11763286_at) / RFU MAGEB2 (11727129_at) / Fold change /veh MAGEB2 (11727129_at) / RFU TMEM200A (11744735_a_at) / Fold change /veh TMEM200A (11744735_a_at) / RFU CCDC152 (11751479_a_at) / Fold change /veh CCDC152 (11751479_a_at) / RFU FAM211A (11726209_a_at) / Fold change /veh FAM211A (11726209_a_at) / RFU RGS16 (11746705_a_at) / Fold change /veh RGS16 (11746705_a_at) / RFU VCAN (11755009_s_at) / Fold change /veh VCAN (11755009_s_at) / RFU RHOB (11743442_s_at) / Fold change /veh RHOB (11743442_s_at) / RFU RGS16 (11720943_a_at) / Fold change /veh RGS16 (11720943_a_at) / RFU RGS16 (11720944_at) / Fold change /veh RGS16 (11720944_at) / RFU, VPS4B / Fold change vs veh, VPS4B / RFU, CREB1 / Fold change vs veh, CREB1 / RFU, DNAJC13 / Fold change vs veh, DNAJC13 / RFU, GNAQ / Fold change vs veh, GNAQ / RFU, CDK5R1 / Fold change vs veh, CDK5R1 / RFU, ZRANB3 / Fold change vs veh, ZRANB3 / RFU, CUL4A / Fold change vs veh, CUL4A / RFU, CCNY / Fold change vs veh, CCNY / RFU, UFL1 / Fold change vs veh, UFL1 / RFU, COG3 / Fold change vs veh, COG3 / RFU, DIAPH2 / Fold change vs veh, DIAPH2 / RFU, SKA2 / Fold change vs veh, SKA2 / RFU, AFF3 / Fold change vs veh, AFF3 / RFU, LMF1 / Fold change vs veh, LMF1 / RFU, IPO11 / Fold change vs veh, IPO11 / RFU, DFFB / Fold change vs veh, DFFB / RFU, FOXP1 / Fold change vs veh, FOXP1 / RFU, CARD8 / Fold change vs veh, CARD8 / RFU, STRN3 / Fold change vs veh, STRN3 / RFU, ADK / Fold change vs veh, ADK / RFU, RASSF2 / Fold change vs veh, RASSF2 / RFU, WIPF1 / Fold change vs veh, WIPF1 / RFU, LARP1B / Fold change vs veh, LARP1B / RFU, RASA1 / Fold change vs veh, RASA1 / RFU, RB1 / Fold change vs veh, RB1 / RFU, PPFIA1 / Fold change vs veh, PPFIA1 / RFU, MAT2A / Fold change vs veh, MAT2A / RFU, CCT5 / Fold change vs veh, CCT5 / RFU, WDR92 / Fold change vs veh, WDR92 / RFU, CUX1 / Fold change vs veh, CUX1 / RFU, TTC7A / Fold change vs veh, TTC7A / RFU, TMEM135 / Fold change vs veh, TMEM135 / RFU, DEPTOR / Fold change vs veh, DEPTOR / RFU, CPM / Fold change vs veh, CPM / RFU, DNAJB6 / Fold change vs veh, DNAJB6 / RFU, CACNA2D3 / Fold change vs veh, CACNA2D3 / RFU, DTX4 / Fold change vs veh, DTX4 / RFU, TFCP2 / Fold change vs veh, TFCP2 / RFU, GMCL1 /// GMCL1P1 / Fold change vs veh, GMCL1 /// GMCL1P1 / RFU, AEBP2 / Fold change vs veh, AEBP2 / RFU, SNHG1 /// SNORD22 /// SNORD25 /// SNORD26 /// SNORD27 /// SNORD28 /// SNORD29 /// SNORD31 / Fold change vs veh, SNHG1 /// SNORD22 /// SNORD25 /// SNORD26 /// SNORD27 /// SNORD28 /// SNORD29 /// SNORD31 / Fold change (Aza/veh), C12orf56 (ProbeSet 11735607_a_at) / Fold change (ACY-1035/veh), C12orf56 (ProbeSet 11735607_a_at) / Fold change (Aza/veh), FGFR1OP (ProbeSet 11751329_s_at) / Fold change (ACY-1035/veh), FGFR1OP (ProbeSet 11751329_s_at) / Fold change (Aza/veh), VPS36 (ProbeSet 11739960_a_at) / Fold change (ACY-1035/veh), VPS36 (ProbeSet 11739960_a_at) / RFU SYPL1 (11715823_x_at) / Fold change /veh SYPL1 (11715823_x_at) / RFU IGFBP7 (11715501_s_at) / Fold change /veh IGFBP7 (11715501_s_at) / RFU REEP3 (11722064_at) / Fold change /veh REEP3 (11722064_at) / RFU IGLL1 (11728026_x_at) / Fold change /veh IGLL1 (11728026_x_at): dose or concentration left out as unconfirmed
Conditions: MV-4-11 cells, 48 hours

Nc1ccc(-c2cccs2)cc1NC(=O)c1ccc2c(c1)cc(C1CC1)n2CCN1CCOCC1 [ACY-1035]
RFU VPS37D (11726825_at): 17.46 RFU
